According to US8314060B2, “Peptide conjugated anti-cancer prodrugs” (BioSight Ltd., priority 2000, dated 2012):
Non-standard residues stand in square brackets, D forms with d. Residues, ends and D or L forms follow the SMILES beside them. No end group written: not given here. *: point of attachment. Phe(4-N(CH2CH2Cl)2) = N[C@@H](Cc1ccc(N(CCCl)CCCl)cc1)C(=O)O; Chlorambucil = O=C(CCCc1ccc(N(CCCl)CCCl)cc1)*

Key:
[1] = system: Human umbilical vein-derived endothelial cells (HUVEC); experiment: Tissue culture cell counting (cell coulter) after 72 hours, HUVEC (normal cells); format: cell-based
Experimental: (§1) Human umbilical vein-derived endothelial cells (HUVEC) were prepared from umbilical veins and cultured as described previously. The HUVE cells were grown in M199 medium supplemented with 20% fetal calf serum, vitamins, 1 ng/ml hbFGF, and antibiotics.
(§2) To determine the biological activity of the drugs, HUVEC (normal cells) or melanoma (cancer) cells were seeded in 24-well dish at a concentration of 10,000-20,000 cells/well, and increasing concentrations of the prodrug 3-Peptide I-Chlorambucil (P-CAC) were added to the wells. As controls, either Cholorambucil or the peptide carrier was added under the same experimental conditions. After 72 hours the cells were washed with phosphate buffer saline (PBS), suspended with 0.5% EDTA/PBS, and counted using cell coulter (Electronics ZM). Cell viability was verified by trypan-blue staining and hemocytometer analysis. IC50 indicates the concentration of the drug measured at 50% of the cell death.

[2] = system: MMPs secreted by cancer cells (conditioned medium of human melanoma cells HMCM or human breast cancer cells BCCM); experiment: In-vitro release of Chlorambucil from the peptide carrier by cancer cell conditioned medium; format: biochemical; conditions: PBS, 2 hours at 37° C., FIG. 6
Experimental: To find out whether proteases are secreted to the conditioned medium of cancer cells, breast cancer cells or melanoma cells were grown to sub-confluence in a 10 cm dish. The cells were washed with PBS, and further incubated with serum free medium. HUVE cells were grown to confluence at 10 cm dish. The cells were washed with M-199 medium, and conditioned with M-199 with 1% heat inactivated serum. The conditioned medium was collected after 24 hours.
(§3) In-vitro release of Chlorambucil from the peptide carrier was carried out in a liquid phase as described in Example 19. Peptide I-Chlorambucil was dissolved in PBS, and incubated for 2 hours at 37° C. in the absence or presence of purified MMPs, or in the presence of conditioned medium of either human melanoma cells (HMCM) or human breast cancer cells (BCCM).
(§4) At the end of the incubation the reaction mixture was incubated with heparin-sepharose (30 minutes at 0° C.). The supernatant was collected, and the release of free chlorambucil was monitored by spectrophotometer at a wavelengh of 305 nm.

purified MMPs = experiment: In-vitro release of Chlorambucil from the peptide carrier by purified MMPs; format: biochemical
Experimental: as §3, §4

HUVEC = experiment: MTT assay for estimation of toxicity, HUVEC (normal cells); format: cell-based, human
Experimental: as §1
(§5) HUVEC or melanoma cells were seeded in 96-well ELISA dish at a concentration of 10,000-20,000 cells/well, and various concentrations of the prodrug 1 were added to the wells as described in Example 17. As a control, Melphalan was added under the same experimental conditions. After 72 hours the medium was aspirated, and DMEM containing 5% FCS and 0.5 mg/ml MTT (an indicator of cell viability) was added. The cells were incubated for 2-4 hours at 37° C. and 5% CO2. At the end of the incubation the cells were washed with phosphate buffer saline (PBS), and dissolved with DMSO. The results were analysed using Techan ELISA reader equipped with a 570 nm filter.

melanoma cells = experiment: MTT assay for estimation of toxicity, melanoma cells; format: cell-based; conditions: Homo sapiens, 72 hours, FIG. 5B
Experimental: (§6) Human melanoma cells (WW-94) were grown in 50% DMEM/50% F-12 medium supplemented with 10% fetal calf serum and antibiotics.
as §5

[3] = system: Human melanoma cells (WW-94); experiment: Tissue culture cell counting (cell coulter) after 72 hours, melanoma cells; format: cell-based; conditions: melanoma (cancer) cells, FIG. 4A, read-out: IC50 (concentration of the drug measured at 50% of the cell death)
Experimental: as §6, §2

CC[C@H](C)[C@H](NC(=O)CNC(=O)[C@H](CC(C)C)NC(=O)[C@H](CC(C)C)NC(=O)CNC(=O)[C@H](Cc1ccc(O)cc1)NC(=O)CCCc1ccc(N(CCCl)CCCl)cc1)C(=O)N[C@@H](C)C(=O)NCC(=O)N1CCC[C@H]1C(=O)N1CCC[C@H]1C(=O)NCC(=O)N1CCC[C@H]1C(=O)N1CCC[C@H]1C(=O)N[C@@H](CC(C)C)C(=O)N[C@@H](Cc1ccc(O)cc1)C(=O)N[C@@H](CCCCN)C(=O)N[C@@H](CCCCN)C(=O)N[C@H](C(=O)N[C@H](C(=O)N[C@@H](CCCCN)C(=O)N[C@@H](CCCCN)C(=O)N[C@@H](CC(C)C)C(=O)N[C@@H](CC(C)C)C(=O)N[C@@H](CCC(N)=O)C(=O)N[C@@H](CO)C(=O)O)[C@@H](C)CC)[C@@H](C)CC [Prodrug 3, Peptide I-Chlorambucil] (Chlorambucil-YGLLGIAGPPGPPLYKKIIKKLLQS-OH)
times less toxic to normal cells ([1]; HUVE cells versus melanoma cells, cell counting): 30 times | release of free chlorambucil from the peptide carrier [2]: can be released | effect of heparin on release of the chemotherapeutic agent from the peptide carrier (purified MMPs; presence of 10 μg/ml heparin, 2 hours incubation): inhibited the release | release of free chlorambucil from the peptide carrier (purified MMPs; purified MMPs, PBS, 2 hours at 37° C., read at 305 nm, FIG. 6): can be released

N[C@@H](Cc1ccc(N(CCCl)CCCl)cc1)C(=O)O [Melphalan, reference compound]
IC50 (HUVEC; Homo sapiens, HUVEC, HUVE cells, 72 hours, FIG. 5A): 100 nM | IC50 (melanoma cells): 70 nM

O=C(O)CCCc1ccc(N(CCCl)CCCl)cc1 [Chlorambucil, reference compound]
IC50 ([1]; Homo sapiens, HUVEC, HUVE (normal) cells, 72 hours, cell counting, FIG. 4B, read-out: IC50 (concentration of the drug measured at 50% of the cell death)): 2000 nM | IC50 [3]: 2000 nM

YGLLGIAGPPGPPLYKKIIKKLLQS [peptide carrier]
toxicity to HUVEC ([1]; HUVEC, 72 hours, FIG. 4): not toxic

CC[C@H](C)[C@H](NC(=O)CNC(=O)[C@H](CC(C)C)NC(=O)[C@H](CC(C)C)NC(=O)CNC(=O)[C@H](Cc1ccc(O)cc1)NC(=O)[C@@H](N)Cc1ccc(N(CCCl)CCCl)cc1)C(=O)N[C@@H](C)C(=O)NCC(=O)N1CCC[C@H]1C(=O)N1CCC[C@H]1C(=O)NCC(=O)N1CCC[C@H]1C(=O)N1CCC[C@H]1C(=O)N[C@@H](CC(C)C)C(=O)N[C@@H](Cc1ccc(O)cc1)C(=O)N[C@@H](CCCCN)C(=O)N[C@@H](CCCCN)C(=O)N[C@H](C(=O)N[C@H](C(=O)N[C@@H](CCCCN)C(=O)N[C@@H](CCCCN)C(=O)N[C@@H](CC(C)C)C(=O)N[C@@H](CC(C)C)C(=O)N[C@@H](CCC(N)=O)C(=O)N[C@@H](CO)C(=O)O)[C@@H](C)CC)[C@@H](C)CC [Prodrug 1, Peptide I-Melphalan] (H-[Phe(4-N(CH2CH2Cl)2)]YGLLGIAGPPGPPLYKKIIKKLLQS-OH; N-terminus and C-terminus assumed)
times less toxic to normal cells (HUVEC; HUVE cells versus melanoma cells): 7 times
